Data taken from patent US11051515B2, “3-acyl-benzamides and their use as herbicides” (Bayer Aktiengesellschaft, priority 2017, dated 2021).

How the values were obtained:
AMARE [1] = assay: Pre-emergence action against AMARE; format: in vivo, Amaranthus retroflexus; conditions: pre-emergence, dosage 320 g/ha, scored visually after 3 weeks vs untreated controls
In short: (§1)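 Seeds sown in sandy loam in wood-fiber pots and covered with soil. Greenhouse growth; visual damage scored after 3 weeks versus untreated controls (100% = dead, 0% = like control).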

MATIN [2] = assay: Pre-emergence action against MATIN; format: in vivo, Matricaria inodora; conditions: for Pre-emergence action against MATIN: Dosage 320 g/ha
In short: as §1

SETVI [3] = assay: Pre-emergence action against SETVI; format: in vivo, Setaria viridis; conditions: for SETVI (Table B8, pre-emergence herbicidal activity): dosage 320 g/ha, scored visually after 3 weeks vs untreated controls
In short: as §1

ECHCG [4] = assay: Pre-emergence action against ECHCG; format: in vivo, Echinochloa crus-galli; conditions: pre-emergence, dosage 320 g/ha, scored visually after 3 weeks vs untreated controls
In short: as §1

AMARE [5] = assay: Post-emergence action against AMARE; format: in vivo, Amaranthus retroflexus; conditions: for Post-emergence action against AMARE (herbicidal action in percent): dosage 80 g/ha, visual assessment about 3 weeks after treatment vs untreated controls
In short: (§2)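 Weeds grown in sandy loam in greenhouse, treated at one-leaf stage (2–3 weeks after sowing) with WP or EC formulations sprayed as aqueous suspension/emulsion at 600 to […] water with 0.2% wetting agent. Visual rating after about 3 weeks versus untreated controls, as % herbicidal action (100% = plants dead, 0% = like control).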

MATIN [6] = assay: Post-emergence action against MATIN; format: in vivo, Matricaria inodora; conditions: for Post-emergence action against MATIN (herbicidal action in percent): dosage 80 g/ha, visual assessment about 3 weeks after treatment vs untreated controls
In short: as §2

SETVI [7] = assay: Post-emergence action against SETVI; format: in vivo, Setaria viridis; conditions: for Post-emergence action against SETVI (herbicidal action in percent): dosage 80 g/ha, visual assessment about 3 weeks after treatment vs untreated controls
In short: as §2

ABUTH [8] = assay: Post-emergence action against ABUTH; format: in vivo, Abutilon theophrasti; conditions: for Post-emergence action against ABUTH (herbicidal action in percent): dosage 80 g/ha, visual assessment about 3 weeks after treatment vs untreated controls
In short: as §2

VIOTR [9] = assay: Pre-emergence action against VIOTR; format: in vivo, Viola tricolor; conditions: for Pre-emergence action against VIOTR: Dosage 320 g/ha
In short: as §1

CYPES = assay: Pre-emergence action against CYPES; format: in vivo, Cyperus esculentus; conditions: for Herbicidal efficacy against CYPES: 80 g of a.i./ha; for Pre-emergence action against CYPES (herbicidal activity): dosage 320 g/ha, scored visually after 3 weeks vs untreated controls
In short: as §1

ABUTH [10] = assay: Pre-emergence action against ABUTH; format: in vivo, Abutilon theophrasti; conditions: pre-emergence, dosage 320 g/ha, scored visually after 3 weeks vs untreated controls
In short: as §1

VIOTR [11] = assay: Post-emergence action against VIOTR; format: in vivo, Viola tricolor; conditions: for Post-emergence action against VIOTR: dosage 80 g/ha
In short: as §2

POLCO [12] = assay: Post-emergence action against POLCO; format: in vivo, Polygonum convolvulus; conditions: post-emergence, dosage 80 g/ha
In short: as §2

STEME [13] = assay: Post-emergence action against STEME; format: in vivo, Stellaria media; conditions: for Post-emergence action against STEME: dosage 80 g/ha
In short: as §2

PHBPU = assay: Post-emergence action against PHBPU; format: in vivo, Pharbitis purpurea; conditions: post-emergence, dosage 80 g/ha
In short: as §2

VERPE [14] = assay: Pre-emergence action against VERPE; format: in vivo, Veronica persica; conditions: Dosage 320 g/ha, pre-emergence
In short: as §1

AVEFA [15] = assay: Post-emergence action against AVEFA; format: in vivo, Avena fatua; conditions: post-emergence, dosage 80 g/ha, visual assessment about 3 weeks after treatment vs untreated controls
Experimental: Seeds of monocotyledonous and dicotyledonous weed and crop plants are laid out in sandy loam soil in wood-fiber pots, covered with soil and cultivated in a greenhouse under good growth conditions. 2 to 3 weeks after sowing, the test plants are treated at the one-leaf stage. The compounds of the invention, formulated in the form of wettable powders (WP) or as emulsion concentrates (EC), are then sprayed onto the green parts of the plants in the form of an aqueous suspension or emulsion at a water application rate equating to […], with addition of 0.2% wetting agent. After the test plants have been left to stand in the greenhouse under optimal growth conditions for about 3 weeks, the action of the preparations is assessed visually in comparison to untreated controls (herbicidal action in percent (%): 100% activity=the plants have died, 0% activity=like control plants). […] At the same time, inventive compounds leave Gramineae crops such as barley, wheat, rye, millet/Sorghum, corn or rice virtually undamaged when applied post-emergence, even at high active ingredient dosages. In addition, some substances are also harmless to dicotyledonous crops such as soya, cotton, oilseed rape, sugar beet or potatoes. Some of the compounds according to the invention have high selectivity and are therefore suitable for controlling unwanted vegetation in agricultural crops by the post-emergence method. The data of Tables B18 to B34 below illustrate, in an exemplary manner, the […] herbicidal action of the compounds according to the invention, the herbicidal activity being stated in percent.

ALOMY = assay: Pre-emergence action against ALOMY; format: in vivo, Alopecurus myosuroides
In short: as §1

VERPE [16] = assay: Post-emergence action against VERPE; format: in vivo, Veronica persica; conditions: dosage 80 g/ha
In short: as §2

STEME [17] = assay: Pre-emergence action against STEME; format: in vivo, Stellaria media; conditions: for Pre-emergence action against STEME: Dosage 320 g/ha
In short: as §1

ECHCG [18] = assay: Post-emergence action against ECHCG; format: in vivo, Echinochloa crus-galli; conditions: post-emergence, dosage 80 g/ha, visual assessment about 3 weeks after treatment vs untreated controls
In short: as §2

POLCO [19] = assay: Pre-emergence action against POLCO; format: in vivo, Polygonum convolvulus; conditions: Dosage 320 g/ha, pre-emergence
In short: as §1

AVEFA [20] = assay: Pre-emergence action against AVEFA; format: in vivo, Avena fatua; conditions: dosage 320 g/ha, scored visually after 3 weeks vs untreated controls
In short: as §1

[21] = Table V10, pre-emergence, 80 g of a.i./ha
[22] = Table V21, post-emergence, 5 g of a.i./ha
[23] = Table V17, post-emergence, 5 g of a.i./ha
[24] = Table V19, post-emergence, 5 g of a.i./ha

SMILES	Pre-emergence action against AMARE (herbicidal activity) (AMARE [1]) [%]	Pre-emergence action against MATIN (MATIN [2]) [%]	SETVI (Table B8, pre-emergence herbicidal activity) (SETVI [3]) [%]	Pre-emergence action against ECHCG (herbicidal activity) (ECHCG [4]) [%]	Post-emergence action against AMARE (herbicidal action in percent) (AMARE [5]) [%]	Post-emergence action against MATIN (herbicidal action in percent) (MATIN [6]) [%]	Post-emergence action against SETVI (herbicidal action in percent) (SETVI [7]) [%]	Post-emergence action against ABUTH (herbicidal action in percent) (ABUTH [8]) [%]	Pre-emergence action against VIOTR (VIOTR [9]) [%]	Pre-emergence action against CYPES (herbicidal activity) (CYPES) [%]	Pre-emergence action against ABUTH (herbicidal activity) (ABUTH [10]) [%]	Post-emergence action against VIOTR (VIOTR [11])	Post-emergence action against POLCO (POLCO [12])	Post-emergence action against STEME (STEME [13])	Post-emergence action against PHBPU (PHBPU)	Pre-emergence action against VERPE (VERPE [14]) [%]	Post-emergence action against AVEFA (herbicidal action in percent) (AVEFA [15]) [%]	Post-emergence action against VERPE (VERPE [16])	Pre-emergence action against STEME (STEME [17]) [%]	Post-emergence action against ECHCG (herbicidal action in percent) (ECHCG [18]) [%]	other results
CCn1nnnc1NC(=O)c1ccc(S(C)(=O)=O)c(C(C)=O)c1C [2-7]	100	100	100	100	100	100	100	100	100	100	100	100	100	100	80	100	100	100	90	100	Herbicidal efficacy against MATIN (MATIN [2]; [21]): 100; Herbicidal efficacy against SETVI (SETVI [3]; [21]): 80; Herbicidal efficacy against AMARE (AMARE [5]; [22]): 100; Herbicidal efficacy against MATIN (MATIN [6]; [23]): 100; MATIN (MATIN [6]; [24]): 100; SETVI (SETVI [7]; [24]): 90; ABUTH (ABUTH [8]; [24]): 100; Herbicidal efficacy against ABUTH (ABUTH [8]; [22]): 100; Herbicidal efficacy against VIOTR (VIOTR [9]; Table V12, pre-emergence, 20 g of a.i./ha): 90; Herbicidal efficacy against CYPES (CYPES; Table V10, pre-emergence): 90; Herbicidal efficacy against CYPES (CYPES; Table V11, pre-emergence): 90; Herbicidal efficacy against VIOTR (VIOTR [11]; [23]): 100; VIOTR (VIOTR [11]; [24]): 100; STEME (STEME [13]; [24]): 100; Herbicidal efficacy against STEME (STEME [13]; [22]): 100; Herbicidal efficacy against ALOMY (ALOMY; [21]): 70; Pre-emergence action against ALOMY (herbicidal activity in percent) (ALOMY; dosage 320 g/ha, pre-emergence, scored visually after 3 weeks vs untreated controls, 100% = plants have died, 0% = like control plants): 80%; Herbicidal efficacy against STEME (STEME [17]; [21]): 90; Pre-emergence action against POLCO (POLCO [19]): 90%
CCCn1nnnc1NC(=O)c1ccc(SC)c(C(=O)C2CC2)c1Cl [3-123]	100	100	100	90	100	100	90	80	100	80	100	100	90	100	90	100	100	100	90	100	Pre-emergence action against AVEFA (herbicidal activity) (AVEFA [20]): 100%; Pre-emergence action against POLCO (POLCO [19]): 80%
